# Patent US5637085A, “Method of cancer tumor treatment by slow release delivery of 1,2,4-benzotriazine oxides to tumor site” (priority 1995, dated 1997)
# “And” between values parts separate entries of the source, which are not always exact repeats. Identical values can stand only once.
# Legend:
# U251 GBM xenograft [1] = test: Experiment B: U251 xenograft response to systemic and intratumoral polymer delivery of tirapazamine (mean tumor volume doubling time); type: in vivo, human U251 in male Balb/c athymic nude mice
# Procedure: (§1) Tumor Cell line: The human GBM cell line (U251) used in the study was obtained from the DCT Tumor Repository, National Cancer Institute. Cells were cultured in Delbecco's MEM/Ham's F-12 nutrient mixture with 10% fetal bovine serum (GIBCO) and […] (penicillin and streptomycin) in 12×80 mm plastic culture dishes or T25 culture flasks. Cells were incubated (37° C.) in a mixture of 5% carbon dioxide and 95% air. Media were changed twice weekly and cells were passaged at confluence with 0.5% trypsin.
# (§2) Nude mouse xenonaft: Six week old male Balb/c athymic nude mice received subcutaneous injections of 4×10^6 (experiment A) and 5×10^6 (experiment B) U251 cells in the left posterior extremity. Tumors were visible after 6 to 8 days. Tumor sizes ranged from 0.51-1.2 cm^3 at the start of the treatment. […] Mice were sacrificed after tumors reached at least twice their original tumor volume.
# (§3) Systemic Administration of Tirapazamine: The drug was supplied by Sanoff Winthrop, Collegeville, Pa. Tirapazamine was dissolved in physiological saline at a concentration of […] and intraperitoneal (IP) injections were given in a volume of 0.02 ml/g body weight (0.08 mmole/kg). Animals in experiment A received daily injections, and animals in experiment B received injections twice daily over 3 consecutive days for a total of 6 injections.
# Tirapazamine Polymer Formulation: 2 mg tirapazamine and 8 mg PCPP:SA polymer were combined in methylene chloride ([…] wt/wt). The solvents were removed by desiccation under vacuum. The tirapazamine containing polymers were then pressed into discs measuring 3 mm in diameter and 1 mm in height. Each disc weighed 10 mg.
# (§4) Implantation of Polymer Discs:. For surgical implantation of polymer discs, animals were anesthetized with methoxyflurane, a skin incision was made next to the xenograft, and an empty disc or tirapazamine disc was inserted in the center of the tumor via a single 3-4 mm incision. The incision was closed using wound clips. Contralateral flank polymer discs were placed subcutaneously using the same technique.
# (§5) In Vivo Irradiation: A Mark I Irradiator (Model 68, J. L. Shepherd and Assoc.) was used for in vivo irradiation. The dose to the xenograft was calibrated using TLD dosimetry and confirmed with radiochromic dye media (Gafchromic) mouthed in polystyrene mouse phantoms. The tumor bearing flank was selectively irradiated, with shielding of the mouse trunk and head. In experiment A, irradiation began on the first day of IP tirapazamine injection, and animals received 2 Gy×6 consecutive daily fractions. In experiment B, irradiation and systemic tirapazamine administration began one day following polymer disc implantation and animals received 2 Gy twice daily (separated by 5-6 hours) over 3 consecutive days for a total of 6 fractions. Radiation treatments were given 5-20 minutes following IP drag or saline injections.
# (§6) Tumor Volumetrics: Tumor length (L), width (W), and height (H) were measured twice weekly and tumor volumes were calculated as pi/6×L×W×H. The logarithm of the ratio of this product (V) to the initial product (VO) for each animal was calculated and the mean logarithm of this ratio for each treatment group was plotted versus time. The time of regrowth to twice the original tumor volume (V/VO=2; log V/VO=0.3) for each animal and treatment group was calculated from the plot of log V/VO vs. time. Mean tumor volume doubling time (VDT) was used as the endpoint to determine efficacy of a given treatment arm on U251 xenograft tumors. Each animal was weighed bi-weekly to assess possible toxicity to treatment.
# Outcomes among experimental groups were compared using the two tailed Student's test.
# Intralesional delivery of tirapazamine by polymer implants: After establishing the antitumor effect of systemic administration of tirapazamine on GBM xenografts, experiment B was done to evaluate intralesional polymer delivery of tirapazamine alone or combined with irradiation. […]
# [2] = tested on: mouse SCCVII and other tumors; conditions: multiple injections in conjunction with fractionated irradiation; cited from earlier work
# [3] = Toxicity, experiment B: mean low and final animal weights as a fraction of the pretreatment weight; type: in vivo, male Balb/c athymic nude mice
# Text: as §2, §3, §4, §5, §6
# The weight losses were transient, with all groups exceeding their pretreatment weights prior to sacrifice.
# [4] = tested on: mouse squamous cell VII tumors; conditions: cited from earlier work
# [5] = tested on: FSalIC Murine Fibrosarcoma; conditions: SR-4233 just before single-dose cyclophosphamide, carmustine or melphalan; cited from earlier work
# U251 GBM xenograft [6] = test: Experiment A: U251 xenograft response to systemic delivery of tirapazamine (mean tumor volume doubling time); type: in vivo, human U251 in male Balb/c athymic nude mice
# Procedure: as §1, §2, §3, §5
# as §6, with “Each animal was weighed bi-weekly to assess possible toxicity to treatment.” left out
# [7] = contralateral flank drug implant and tumor empty implant + radiation, group 4
# [8] = tumor drug implant + IP tirapazamine + radiation, group 7
# [9] = tumor drug implant + IP tirapazamine, no radiation, group 2
# [10] = tumor drug implant + radiation, group 5
# [11] = tumor empty implant + IP tirapazamine + radiation, group 6
# [12] = within one hour of injecting tirapazamine
smiles,measurement,setting,value
"Nc1n[n+]([O-])c2ccccc2[n+]1[O-] [tirapazamine, 3-amino-1,2,4-benzotriazine-1,4-dioxide]",Mean xenograft tumor doubling time (VDT) ± SEM,"U251 GBM xenograft [1]; contralateral flank drug implant and tumor empty implant + radiation 2Gy bid × 3 days, group 4",16.4 ± 1.57 days
same,growth delay,"U251 GBM xenograft [1]; group 7 vs IP tirapazamine alone plus radiation, P=0.016",11.8 days
same,growth delay,"U251 GBM xenograft [1]; group 7 vs tumor drug implant alone plus radiation, P=0.004",12.8 days
same,growth delay,"U251 GBM xenograft [1]; tumor drug implant + IP tirapazamine + radiation (group 7) vs radiation alone controls, P<0.001",16.5 days
same,Mean xenograft tumor doubling time (VDT) ± SEM,"U251 GBM xenograft [1]; tumor drug implant + IP tirapazamine bid + radiation 2Gy bid × 3 days, group 7",35.8 ± 2.0 days
same,Mean xenograft tumor doubling time (VDT) ± SEM,"U251 GBM xenograft [1]; tumor drug implant + IP tirapazamine bid, no radiation, group 2",10.5 ± .87 days
same,growth delay,"U251 GBM xenograft [1]; tumor drug implant + IP tirapazamine, no radiation vs tumor empty polymer implant (group 1), P=0.15",3.5 days
same,Mean xenograft tumor doubling time (VDT) ± SEM,"U251 GBM xenograft [1]; tumor drug implant + radiation 2Gy bid × 3 days, no IP tirapazamine, group 5",23.0 ± 2.49 days
same,growth delay,"U251 GBM xenograft [1]; tumor drug implant plus radiation (group 5) vs tumor empty implant plus contralateral drug implant with radiation, P=0.055",6.6 days
same,growth delay,"U251 GBM xenograft [1]; tumor drug implant plus radiation (group 5) vs tumor empty polymer implant plus radiation, P=0.24",3.7 days
same,Mean xenograft tumor doubling time (VDT) ± SEM,"U251 GBM xenograft [1]; tumor empty implant + IP tirapazamine bid + radiation 2Gy bid × 3 days, group 6",24.8 ± 3.0 days
same,growth delay,"U251 GBM xenograft [1]; tumor empty implant + IP tirapazamine with radiation (group 6) vs tumor empty implant plus radiation, P=0.15",5.5 days
same,tumor cell kill with fractionated irradiation,[2],increases tumor cell kill while sparing normal tissue
same,systemic toxicity (weight loss),"[3]; combination of IP and polymer tirapazamine, transient, toxicity primarily associated with the IP treatments",produced systemic toxicity
same,Final body weight/Pretreatment weight (± SEM),[3]; [7],1.08 ± .02
same,Low weight post treatment/Pretreatment weight (± SEM),[3]; [7],0.96 ± .02
same,Final body weight/Pretreatment weight (± SEM),[3]; [8],1.06 ± .03
same,Low weight post treatment/Pretreatment weight (± SEM),[3]; [8],0.85 ± .03
same,Final body weight/Pretreatment weight (± SEM),[3]; [9],1.05 ± .04
same,Low weight post treatment/Pretreatment weight (± SEM),[3]; [9],0.95 ± .01
same,Final body weight/Pretreatment weight (± SEM),[3]; [10],1.06 ± .01
same,Low weight post treatment/Pretreatment weight (± SEM),[3]; [10],0.95 ± .01
same,Final body weight/Pretreatment weight (± SEM),[3]; [11],1.09 ± .03
same,Low weight post treatment/Pretreatment weight (± SEM),[3]; [11],0.89 ± .01
same,time of return of hypoxic fraction to pretreatment levels,[4]; after injecting tirapazamine,3 to 5 h
same,hypoxic fraction,[4]; [12],0.57%
same,"hypoxic fraction, % of pretreatment levels",[4]; [12],about 7%
same,cytotoxic effects on tumor cells in combination with alkylating agents,[5],marked dose enhancement leading to synergistic cytotoxic effects on tumor cells
same,effect on mean volume doubling time (VDT),"U251 GBM xenograft [6]; IP tirapazamine alone, no radiation",no effect
same,Mean xenograft tumor volume doubling time (VDT) ± SEM,"U251 GBM xenograft [6]; IP tirapazamine daily × 6 (0.08 mmole/kg) plus radiation 2Gy daily × 6, group 4",35 days and 35 ± 2.5 days
same,Mean xenograft tumor volume doubling time (VDT) ± SEM,"U251 GBM xenograft [6]; IP tirapazamine daily × 6 (0.08 mmole/kg), no radiation, group 2",12 days and 12 ± 0.6 days
same,lengthening of mean VDT,"U251 GBM xenograft [6]; fractionated radiation (2 Gy×6) plus IP tirapazamine, 12 days for fractionated radiation alone",25 days
